Among the data in publication PMC8865125, “Isocoumarins: a new class of selective carbonic anhydrase IX and XII inhibitors” (Journal of Enzyme Inhibition and Medicinal Chemistry, 2022) are Ki values, retold here.

Assay in all cases: stopped-flow CO2 hydrase assay
Holding throughout (assay type): biochemical

Assay [1] has as its target T1, hCA II (Homo sapiens, UniProt P00918).
T1 construct: gene CA2; recombinant
Conditions: read-out: KI (μM)^a^,b / hCA I.

In assay [2] the target is T2, hCA I (Homo sapiens, UniProt P00915).
T2 construct: gene CA1; recombinant
T2 sequence (P00915 2-261): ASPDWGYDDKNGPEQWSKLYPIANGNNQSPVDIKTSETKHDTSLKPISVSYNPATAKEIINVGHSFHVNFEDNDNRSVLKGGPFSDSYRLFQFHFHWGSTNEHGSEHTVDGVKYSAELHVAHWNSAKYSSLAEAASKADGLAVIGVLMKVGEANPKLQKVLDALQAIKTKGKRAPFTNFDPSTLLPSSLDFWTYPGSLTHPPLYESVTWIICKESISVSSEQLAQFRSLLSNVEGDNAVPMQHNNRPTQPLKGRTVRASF
Conditions: read-out: KI (μM)^a^,b / hCA I. From the text:
stopped-flow CO2 hydrase assay on hCA I

The target in assay [3] is T3, hCA IX (Homo sapiens, UniProt Q16790).
T3 construct: gene CA9; recombinant
Conditions: read-out: KI (μM)^a^,b / hCA IX. The source says:
stopped-flow CO2 hydrase assay on hCA IX

In assay [4] the target is T4, hCA XII (Homo sapiens, UniProt O43570).
T4 construct: gene CA12; recombinant
T4 sequence (O43570 25-354 limits assumed): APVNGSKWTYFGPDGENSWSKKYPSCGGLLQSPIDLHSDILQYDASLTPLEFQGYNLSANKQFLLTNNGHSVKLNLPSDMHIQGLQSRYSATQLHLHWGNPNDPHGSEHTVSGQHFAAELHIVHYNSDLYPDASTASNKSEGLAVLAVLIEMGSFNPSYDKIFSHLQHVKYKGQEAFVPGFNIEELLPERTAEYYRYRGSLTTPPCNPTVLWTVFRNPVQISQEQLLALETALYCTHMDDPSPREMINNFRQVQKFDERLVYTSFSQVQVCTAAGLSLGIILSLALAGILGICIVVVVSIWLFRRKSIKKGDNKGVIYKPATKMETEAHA
The conditions noted are these: read-out: KI (μM)^a^,b / hCA XII. From the text:
stopped-flow CO2 hydrase assay on hCA XII

The target of assay [5] is T3, hCA IX. The conditions noted are these: read-out: KI (μM)^a^,b / hCA I.
Assay [6] concerns the target T4, hCA XII. The conditions noted are these: read-out: KI (μM)^a^,b / hCA I.

Like-named read-outs stand apart in the source and are kept apart here.

`O=Cc1cn(-c2ccccc2)nc1-c1cc2ccccc2c(=O)o1` [X6, 3–(1-oxo-1H-isochromen-3-yl)-1-phenyl-1H-pyrazole-4-carbaldehyde]: the Ki in assay [1] was more than 100 µM; in assay [2] it was more than 100 µM; in assay [3] it was 7.1 µM; in assay [4], 6.5 µM.
In the case of `O=C1NC(=O)C(=Cc2cn(-c3ccccc3)nc2-c2cc3ccccc3c(=O)o2)C(=O)N1` [X11, 5-((3–(1-oxo-1H-isochromen-3-yl)-1-phenyl-1H-pyrazol-4-yl)methylene) pyrimidine-2,4,6(1H,3H,5H)-trione], the Ki in assay [1] was more than 100 µM; in assay [2], more than 100 µM; in assay [3], 46.2 µM; in assay [4], 41.7 µM.
Consider `CC(=NNc1ccc(C#N)cc1)c1cc2ccccc2c(=O)o1` [X3, 4–(2-(1–(1-oxo-1H-isochromen-3-yl)ethylidene)hydrazinyl) benzonitrile], for which the Ki was more than 100 µM in assay [1], more than 100 µM in assay [2] and 1.2 µM in assay [4].
Take `Cc1c(-c2nn(-c3ccccc3)cc2C=C2C(=O)NC(=O)NC2=O)oc(=O)c2ccccc12` [X14, 5-((3–(4-methyl-1-oxo-1H-isochromen-3-yl)-1-phenyl-1H-pyrazol-4-yl)methylene) pyrimidine-2,4,6(1H,3H,5H)-trione]: the Ki in assay [1] is more than 100 µM; in assay [2], more than 100 µM; in assay [3] it was 54.6 µM; in assay [4], 66.5 µM.
In the case of `Cc1c(-c2nn(-c3ccccc3)cc2C=O)oc(=O)c2ccccc12` [X9, 3–(4-methyl-1-oxo-1H-isochromen-3-yl)-1-phenyl-1H-pyrazole-4-carbaldehyde], the Ki in assay [1] was more than 100 µM; in assay [2] it was more than 100 µM; in assay [3] it was 8.9 µM; in assay [4], 8.1 µM.
With `CC(=NNc1ccc(Cl)cc1)c1cc2ccccc2c(=O)o1` [X2, 3–(1-(2–(4-chlorophenyl) hydrazono)ethyl)-1H-isochromen-1-one], the Ki in assay [1] was more than 100 µM; in assay [2], more than 100 µM; in assay [3], 3.5 µM; in assay [4] it was 4.6 µM.
For the compound `O=C1NC(=S)NC(=O)C1=Cc1cn(-c2ccccc2)nc1-c1cc2ccccc2c(=O)o1` [X16, 5-((3–(1-oxo-1H-isochromen-3-yl)-1-phenyl-1H-pyrazol-4-yl)methylene)-2-thioxodihydropyrimidine-4,6(1H,5H)-dione], the Ki in assay [1] was more than 100 µM; in assay [2], more than 100 µM; in assay [3], 49.7 µM; in assay [4], 47.1 µM.
Consider `Cc1c(-c2nn(-c3ccc(Cl)cc3)cc2C=O)oc(=O)c2ccccc12` [X10, 1–(4-chlorophenyl)-3–(4-methyl-1-oxo-1H-isochromen-3-yl)-1H-pyrazole-4-carbaldehyde], for which the Ki in assay [1] was more than 100 µM; in assay [2], more than 100 µM; in assay [3], 8.1 µM; in assay [4] it was 13.4 µM.
For the compound `O=C1NC(=S)NC(=O)C1=Cc1cn(-c2ccc(Cl)cc2)nc1-c1cc2ccccc2c(=O)o1` [X17, 5-((1–(4-chlorophenyl)-3–(1-oxo-1H-isochromen-3-yl)-1H-pyrazol-4-yl)methylene)-2-thioxodihydropyrimidine-4,6(1H,5H)-dione], the Ki in assay [1], in assay [2], in assay [5] and in assay [6] was more than 100 µM each time.
Take `CC(=NNc1ccccc1)c1cc2ccccc2c(=O)o1` [X1, 3–(1-(2-phenylhydrazono)ethyl)-1H-isochromen-1-one]: the Ki in assay [1] is more than 100 µM; in assay [2], more than 100 µM; in assay [3], 4.3 µM; in assay [4], 1.9 µM.
With `CC(=NNc1ccccc1)c1oc(=O)c2ccccc2c1C` [X4, 4-methyl-3–(1-(2-phenylhydrazono)ethyl)-1H-isochromen-1-one], the Ki in assay [1] is more than 100 µM; in assay [2], more than 100 µM; in assay [3], 3.9 µM; in assay [4], 2.3 µM.
On to `Cc1c(-c2nn(-c3ccccc3)cc2C=C2C(=O)NC(=S)NC2=O)oc(=O)c2ccccc12` [X19, 5-((3–(4-methyl-1-oxo-1H-isochromen-3-yl)-1-phenyl-1H-pyrazol-4-yl)methylene)-2-thioxodihydropyrimidine-4,6(1H,5H)-dione], for which the Ki in assay [1] was more than 100 µM; in assay [2], more than 100 µM; in assay [3], 72.3 µM; in assay [4], 62.8 µM.
As to `CC(=NNc1ccc(Cl)cc1)c1oc(=O)c2ccccc2c1C` [X5, 3–(1-(2–(4-chlorophenyl) hydrazono)ethyl)-4-methyl-1H-isochromen-1-one], the Ki in assay [1] is more than 100 µM; in assay [2] it was more than 100 µM; in assay [3] it was 2.7 µM; in assay [4], 5.8 µM.
As to `O=C1NC(=O)C(=Cc2cn(-c3ccc(Cl)cc3)nc2-c2cc3ccccc3c(=O)o2)C(=O)N1` [X12, 5-((1–(4-chlorophenyl)-3–(1-oxo-1H-isochromen-3-yl)-1H-pyrazol-4-yl)methylene) pyrimidine-2,4,6(1H,3H,5H)-trione], the Ki in assay [1], in assay [2], in assay [5] and in assay [6] was more than 100 µM each time.
As for `Cc1c(-c2nn(-c3ccc(Cl)cc3)cc2C=C2C(=O)NC(=S)NC2=O)oc(=O)c2ccccc12` [X20, 5-((1–(4-chlorophenyl)-3–(4-methyl-1-oxo-1H-isochromen-3-yl)-1H-pyrazol-4-yl)methylene)-2-thioxodihydropyrimidine-4,6(1H,5H)-dione], the Ki in assay [1], in assay [2], in assay [5] and in assay [6] was more than 100 µM in each case.
For the compound `N#Cc1ccc(-n2cc(C=C3C(=O)NC(=S)NC3=O)c(-c3cc4ccccc4c(=O)o3)n2)cc1` [X18, 4–(4-((4,6-dioxo-2-thioxotetrahydropyrimidin-5(2H)-ylidene)methyl)-3–(1-oxo-1H-isochromen-3-yl)-1H-pyrazol-1-yl) benzonitrile], the Ki in assay [1] is more than 100 µM; in assay [2] it was more than 100 µM; in assay [3], 78.9 µM; in assay [4], 53.4 µM.
For the compound `N#Cc1ccc(-n2cc(C=O)c(-c3cc4ccccc4c(=O)o3)n2)cc1` [X8, 4–(4-formyl-3–(1-oxo-1H-isochromen-3-yl)-1H-pyrazol-1-yl) benzonitrile], the Ki in assay [1] was more than 100 µM; in assay [2], more than 100 µM; in assay [3], 8 µM; in assay [4], 8.3 µM.
On to `O=Cc1cn(-c2ccc(Cl)cc2)nc1-c1cc2ccccc2c(=O)o1` [X7, 1–(4-chlorophenyl)-3–(1-oxo-1H-isochromen-3-yl)-1H-pyrazole-4-carbaldehyde], for which the Ki in assay [1] is more than 100 µM; in assay [2] it was more than 100 µM; in assay [3], 6.2 µM; in assay [4], 11.6 µM.
In the case of `Cc1c(-c2nn(-c3ccc(Cl)cc3)cc2C=C2C(=O)NC(=O)NC2=O)oc(=O)c2ccccc12` [X15, 5-((1–(4-chlorophenyl)-3–(4-methyl-1-oxo-1H-isochromen-3-yl)-1H-pyrazol-4-yl)methylene) pyrimidine-2,4,6(1H,3H,5H)-trione], the Ki in assay [1], in assay [2], in assay [5] and in assay [6] was more than 100 µM each time.
For `N#Cc1ccc(-n2cc(C=C3C(=O)NC(=O)NC3=O)c(-c3cc4ccccc4c(=O)o3)n2)cc1` [X13, 4–(3-(1-oxo-1H-isochromen-3-yl)-4-((2,4,6-trioxotetrahydropyrimidin-5(2H)-ylidene)methyl)-1H-pyrazol-1-yl) benzonitrile], the Ki is more than 100 µM in assay [1], more than 100 µM in assay [2], 62.4 µM in assay [3] and 36.2 µM in assay [4].
